Results reported in PMC5834492, “Antimycobacterial drug discovery using Mycobacteria-infected amoebae identifies anti-infectives and new molecular targets” (Scientific Reports, 2018).

Experiments:
M. marinum luxCDABE = assay type: cell-based, Mycobacterium marinum
[1] = tested on: M. marinum in BV2 microglial cells; assay type: cell-based, Mycobacterium marinum
[2] = tested on: M. marinum in A. castellanii; assay type: cell-based, Mycobacterium marinum
Mtb H37Rv = tested on: Mtb H37Rv; parameters: method as in Sorrentino et al, 2015; conditions: ref Sorrentino et al, 2015; cited from earlier work
Mtb H37Rv in THP-1 = tested on: Mtb H37Rv in THP-1; parameters: method as in Sorrentino et al, 2015; conditions: ref Sorrentino et al, 2015, cited from earlier work; for Intracelullar MIC90 in THP-1: THP1 / Mtb H37Rv infection assay; for Extracellular MIC90/ Inracellular MIC90: ratio

| SMILES | Growth inhibition / Cytotoxicity assays: D. discoideum GFP-ABD (D. discoideum GFP-ABD) | Antibiotic assays: M. marinum luxCDABE (M. marinum luxCDABE) | Intracellular infection assays: BV2 / M. marinum [1] | Intracellular infection assays: A. castellanii / M. marinum [2] | Extracellular MIC90 (Mtb H37Rv) [µM] | Intracelullar MIC90 in THP-1 (Mtb H37Rv in THP-1) [µM] | Extracellular MIC90/ Inracellular MIC90 (Mtb H37Rv in THP-1) | Growth inhibition / Cytotoxicity assays: BV2 cells (BV2 cells) |
| --- | --- | --- | --- | --- | --- | --- | --- | --- |
| Cc1cc(NCCc2ccccc2)nc(/N=C(\N)Nc2ccc(Cl)cc2)n1 [CCI7967] | 0.89 | 0.00 | 1.01 | 1.16 | 2.4 | 0.61 | 3.93 | False |
| Cc1cc(OCC(=O)NCc2ccccc2)c2cc(Br)ccc2n1 [GSK124576A] | 0.91 | 0.00 | 1.05 | 1.13 | 2.3 | 5.55 | 0.41 | False |
| O=C(Nc1nnc(-c2ccc(Cl)cc2)o1)c1cccc(C(F)(F)F)c1 [GSK130506A] | 1.07 | 0.00 | 1.46 | 1.05 | 5.6 | 16.65 | 0.34 | False |
| Cc1cccc(-c2nc(Nc3ccncn3)c3c(C)csc3n2)n1 [GSK163574A] | 0.81 | 0.00 | 1.25 | 1.13 | 0.3 | 50 | 0.01 | False |
| COc1cc(Nc2ccccc2)ccc1NS(=O)(=O)c1c(C)noc1C [GSK270670A] | 0.94 | 1.00 | 1.42 | 1.11 | 6.1 | 50 | 0.12 | False |
| CN1CCN(c2cc(-c3ccc(F)cc3)nc(-c3ccncc3)n2)CC1 [GSK276001A] | 0.65 | 0.63 | 1.11 | 1.04 | 7.4 | 50 | 0.15 | False |
| COc1ccc2nc(C)cc(OCC(=O)Nc3ccccc3OC)c2c1 [GSK358607A] | 0.39 | 0.00 | 0.98 | 0.55 | 0.4 | 1.85 | 0.22 | False |
| COc1ccc2nc(C)cc(OCC(=O)NCc3ccccc3)c2c1 [GSK463114A] | 0.95 | 0.00 | 1.37 | 1.10 | 1.1 | 5.55 | 0.2 | False |
| Cc1nn(Cc2ccccc2)c(Cl)c1C(=O)NC1CCCCCC1 [GSK636544A] | 0.93 | 0.00 | 1.35 | 1.07 | 5.2 | 1.85 | 2.81 | False |
| Fc1ccc2nc(Nc3nc(-c4ccccn4)cs3)sc2c1 [GSK735816A] | 0.37 | 0.00 | 1.37 | 1.17 | 2.3 | 1.85 | 1.24 | False |
| c1ccc(-c2csc(Nc3nc4cc5c(cc4s3)OCO5)n2)nc1 [GSK735826A] | 0.86 | 0.00 | 1.47 | 0.98 | 2.7 | 1.85 | 1.46 | False |
| O=C(Cc1ccc(F)cc1)Nc1nc(-c2ccccn2)cs1 [GSK1570606A] | 0.06 | 0.00 | 1.05 | 1.21 | – | >50 | – | False |
| CCc1c(C)nc(-n2nc(C)cc2NC(=O)c2ccccc2SC)[nH]c1=O [GSK1783710A] | 0.94 | 0.67 | 1.11 | 1.00 | – | >50 | – | False |
| O=C(CCCSc1ccccc1)NNC(=O)c1cccs1 [GSK2157753A] | 1.04 | 0.11 | 1.67 | 1.00 | – | >50 | – | False |
